Laboratory results: patent US20230203095A1, “BIOLOGICAL PEPTIDE FOR TREATING LUNG DISEASES AND APPLICATION THEREOF” (SHANGHAI INSTITUTE OF PHARMACEUTICAL INDUSTRY CO., LTD., priority 2019, published 2023)
Where two headings read alike, the source gives them in different places. Square brackets hold non-standard residues; d marks the D form. Peptide text beside a SMILES is read from it. * marks the point of attachment. X1 = CC(=O)N[C@H]1C(*)O[C@H](CO)[C@@H](O)[C@@H]1O

Tests used:
[1] = tested on: OVA-induced asthma model mice; assay: Lung function (inspiratory airway resistance, lung compliance) in OVA-induced allergic asthma model mice; type: in vivo, BALB/c mice; details: for Inspiratory airway resistance / Lung compliance: n=10
Experimental: The second batch: mice were divided into groups, 10 mice in each group, namely: blank control group (normal saline), model group (OVA, dose of 20 ug/mouse), SP peptide group (administered dose of 87.5 µg/kg body weight/ day, 175 µg/kg body weight/day, 350 µg/kg body weight/day, respectively), SIPI-D00 peptide group (administered dose of 87.5 µg/kg body weight/day, 175 µg/kg body weight/day, 350 µg/kg body weight/day), and Dexamethasone group (administered dose of 2 mg/kg body weight/day).
Mice in the model group, SP peptide group, SIPI-D00 peptide group and dexamethasone group were sensitized by intraperitoneal injection of OVA (20 µg OVA/mice) on day 0, 7, and 14, and challenged by aerosol administration of OVA (once a day for 5 consecutive days) on day 21-25 to construct asthmatic model animals. Mice in the model group were given normal saline on days 21-28; mice in different doses of SP peptide group and SIPI-D00 peptide group were injected subcutaneously with different doses of SP and SIPI-D00 on days 19-28; mice in dexamethasone group were injected intraperitoneally with 2 mg/kg/day dexamethasone on days 21-28. At the same time, 10 mice in the blank control group were fed normally from day 0 to day 28 without any treatment, and were given normal saline as a blank control.
On the 28th day, the mice were anesthetized with tracheal intubation and jugular vein intubation, and the inspiratory airway resistance and lung compliance were measured in each group of animals. Each animal was given fold increasing amounts of methacholine via the jugular vein: 0.025 mg/kg, 0.05 mg/kg, 0.1 mg/kg, 0.2 mg/kg. After each dose was given, the lung compliance curve was recorded continuously for 5 minutes, and the inspiratory airway resistance and lung compliance were calculated. […]
At the same time, 10 mice in the blank control group were fed normally from day 0 to day 28 without any treatment, and were given normal saline as a blank control.

[2] = Stability of each 7-peptide compound in rat whole blood; type: in vitro ADME; details: for stability in whole blood: compared with SP peptide; for recovery: read-out: Recovery rate (%) M±SD
Experimental: Preparation of the test product: SP and SIPI-D00 were dissolved and diluted with an appropriate amount of 50% acetonitrile water containing 0.1% formic acid to obtain a working solution with a concentration of 200 µg/mL.
• 1) Fresh rat whole blood was added to the EP tube, and shaken gently to mix well; • 2) The EP tube was pre-incubated in a 37° C. water bath for 5 minutes; • 3) Each compound was added to start the reaction and continued to incubate at 37° C.; • 4) 50 µL sample was taken from the sample tube at 0, 2 min, 5 min, 10 min, 30 min, and 60 min, respectively, into the stop tube, 50 µL of ice-cold 7% perchloric acid was added, and shaken to stop the reaction; • 5) Sample was centrifuged at 13000 r/min for 10 min, 75 µL supernatant was aspirated, 60 µL1.25% ammonia water was added and mixed well. After filtered with […] microporous membrane, 20 µL sample was taken for LC-MS/MS analysis.

[3] = tested on: ConA-stimulated mouse splenocytes; assay: Secretion of IL-4 from mouse splenocytes stimulated by ConA (ELISA); type: cell-based, BALB/C mice; details: for IL-4 levels of polypeptides: ConA 5 µg/mL, 24 h
Experimental: (§1) Three BALB/C mice were sacrificed by cervical dislocation after anesthesia. Then mice were immersed in 75% ethanol for 5 minutes. After dissection and spleen extraction, spleen lymphocytes were prepared. […] Different concentrations of test substances were added to each well, and duplicate wells were set for each concentration, and the final concentration of ConA was 5 µg/mL. The plate was incubated in a 37° C. 5% CO2 incubator for 24 h, the drug-containing cell suspension was aspirated from each well, then centrifuged at 200 g for 15 min at 4° C. The supernatant was taken, and mouse IL-4 Elisa kit was used to detect IL- 4 content.
as §1, with “each concentration was” for “duplicate wells were”, “up as triple wells,” for “for each concentration,”, “kit (mouse IL-4 Elisa kit)” for “kit”

[4] = 87.5 ug/kg/day s.c., methacholine 0 mg/kg
[5] = 87.5 ug/kg/day s.c., methacholine 0.025 mg/kg
[6] = 87.5 ug/kg/day s.c., methacholine 0.05 mg/kg
[7] = 87.5 ug/kg/day s.c., methacholine 0.1 mg/kg
[8] = 87.5 ug/kg/day s.c., methacholine 0.2 mg/kg
[9] = 175 ug/kg/day s.c., methacholine 0 mg/kg
[10] = 175 ug/kg/day s.c., methacholine 0.025 mg/kg
[11] = 175 ug/kg/day s.c., methacholine 0.05 mg/kg
[12] = 175 ug/kg/day s.c., methacholine 0.1 mg/kg
[13] = 175 ug/kg/day s.c., methacholine 0.2 mg/kg
[14] = 350 ug/kg/day s.c., methacholine 0 mg/kg
[15] = 350 ug/kg/day s.c., methacholine 0.025 mg/kg
[16] = 350 ug/kg/day s.c., methacholine 0.05 mg/kg
[17] = 350 ug/kg/day s.c., methacholine 0.1 mg/kg
[18] = 350 ug/kg/day s.c., methacholine 0.2 mg/kg
[19] = rat whole blood, 37° C., 1000 ng/mL, incubation time 0 min
[20] = rat whole blood, 37° C., 1000 ng/mL, incubation time 2 min
[21] = rat whole blood, 37° C., 1000 ng/mL, incubation time 5 min
[22] = rat whole blood, 37° C., 1000 ng/mL, incubation time 10 min
[23] = rat whole blood, 37° C., 1000 ng/mL, incubation time 30 min
[24] = rat whole blood, 37° C., 1000 ng/mL, incubation time 60 min

C[C@H](O)[C@@H](NC(=O)[C@@H](Cc1ccc(O)cc1)NC(=O)[C@H](NC(=O)[C@@H](CO)NC(=O)CN)[C@H](C)O)C(=O)N[C@H](CCC(N)=O)C(=O)NCC(=O)O [SIPI-D00, GSTYTQG] (H-G[dS][dT][dY][dT][dQ]G-OH) showed an Inspiratory airway resistance [1, 4] of 1.00±0.00, a Lung compliance [1, 4] of 1.00±0.00 and an Inspiratory airway resistance [1, 5] of 1.32±0.32. The Lung compliance [1, 5] was 0.80±0.18, the Inspiratory airway resistance [1, 6] was 1.64±0.35 and the Lung compliance [1, 6] was 0.64±0.14. For the same molecule, the Inspiratory airway resistance [1, 7] was 1.86±0.43, the Lung compliance [1, 7] was 0.57±0.13 and the Inspiratory airway resistance [1, 8] was 2.05±0.51. It also gave a Lung compliance [1, 8] of 0.52±0.13, an Inspiratory airway resistance [1, 9] of 1.00±0.00 and a Lung compliance [1, 9] of 1.00±0.00. For the same molecule, the Inspiratory airway resistance [1, 10] was 1.21±0.15, the Lung compliance [1, 10] was 0.84±0.10 and the Inspiratory airway resistance [1, 11] was 1.35±0.18. The Lung compliance [1, 11] was 0.75±0.10, the Inspiratory airway resistance [1, 12] was 1.47±0.21 and the Lung compliance [1, 12] was 0.69±0.093. For the same molecule, the Inspiratory airway resistance [1, 13] was 1.58±0.34, the Lung compliance [1, 13] was 0.65±0.12 and the Inspiratory airway resistance [1, 14] was 1.00±0.00. The Lung compliance [1, 14] was 1.00±0.00, the Inspiratory airway resistance [1, 15] was 1.28±0.30 and the Lung compliance [1, 15] was 0.83±0.14. The Inspiratory airway resistance [1, 16] was 1.43±0.35, the Lung compliance [1, 16] was 0.70±0.19 and the Inspiratory airway resistance [1, 17] was 1.61±0.47. The Lung compliance [1, 17] was 0.55±0.18, the Inspiratory airway resistance [1, 18] was 1.74±0.51 and the Lung compliance [1, 18] was 0.49±0.19. The “inspiratory phase resistance (in words)” value ([1]; compared with the model group) was “significantly decreased”, the “lung compliance (in words)” value ([1]; compared with the model group) was “significantly increased” and the “stability in whole blood” value [2] was “significantly higher than that of SP peptide”. The recovery [2, 19] was 100%, the recovery [2, 20] was 97.9 ± 7.4% and the recovery [2, 21] was 101 ± 10.7%. For the same molecule, the recovery [2, 22] was 99.6 ± 1.3%, the recovery [2, 23] was 97.9 ± 2.5% and the “Recovery rate (%) M±SD” value [2, 24] was 103±3.9%. The recovery [2, 24] was 100%, the “secretion of IL-4 by ConA-stimulated mouse spleen lymphocytes (in words)” value [3] was “significantly inhibit” and the “Inhibitory rate of polypeptide on IL-4 secretion” value (shortened to “Inhibitory rate of polypeptide”) ([3]; peptide concentration 1 µg/mL) was 34.96%. For the same molecule, the “IL-4 levels of polypeptides” value ([3]; peptide concentration 1 µg/mL) was 14.05 ± 2.19 pg/mL, the “Inhibitory rate of polypeptide” value ([3]; peptide concentration 3 µg/mL) was 59.68% and the “IL-4 levels of polypeptides” value ([3]; peptide concentration 3 µg/mL) was 8.71 ± 0.95 pg/mL. For the same molecule, the “Inhibitory rate of polypeptide” value ([3]; peptide concentration 10 µg/mL) was 71.00%, the “IL-4 levels of polypeptides” value ([3]; peptide concentration 10 µg/mL) was 6.26 ± 0.36 pg/mL and the “Inhibitory rate of polypeptide” value ([3]; peptide concentration 30 µg/mL) was 72.82%. For the same molecule, the “IL-4 levels of polypeptides” value ([3]; peptide concentration 30 µg/mL) was 5.87 ± 0.49 pg/mL.

In the case of CC(=O)N[C@H]1C(OC[C@H](NC(=O)[C@@H](NC(=O)[C@H](Cc2ccc(O)cc2)NC(=O)[C@@H](NC(=O)[C@H](CCC(N)=O)NC(=O)CN)[C@@H](C)OC2O[C@H](CO)[C@@H](O)[C@H](O)[C@H]2NC(C)=O)[C@@H](C)O)C(=O)NCC(=O)O)O[C@H](CO)[C@@H](O)[C@@H]1O (some centres unmarked) [SIPI-G9, GQT(Glc)YTS(Glc)G] (H-GQT(X1)YTS(X1)G-OH), the “stability in whole blood” value [2] is reported as “significantly higher than that of SP peptide”, the recovery [2, 19] is reported as 100% and the recovery [2, 20] is reported as 98.8 ± 4.6%. The recovery [2, 21] was 98.3 ± 2.9%, the recovery [2, 22] was 96.3 ± 4.9% and the recovery [2, 23] was 95.9 ± 1%. It also gave a recovery [2, 24] of over 90%.
